According to patent US3931314A, “Benzophenone derivatives and process for their production” (Cassella Farbwerke Mainkur Aktiengesellschaft, priority 1972, dated 1976):

How the values were obtained:
[1] = test system: central nervous system; test: climbing test on albino mice, sedative action on the central nervous system; type: in vivo; conditions: Mus musculus, po, read-out: Sedative action % (percentage of animals which no longer take up the climbing work); for responders at 10 mg/kg: dose 10 mg/kg p.o.; for responders at 8 mg/kg: dose 8 mg/kg p.o.
Protocol: The pharmacological investigation of the sedative action on the central nervous system was carried out using the climbing tests on albino mice described by P. K. KNEIP: Arch. int. pharmacodyn 126, 238 (1960) and R. DOMENJOZ and W. THEOBALD: Arch. int. pharmacodyn 120, 450 (1959).
In the table which follows, the results of the pharmacological investigations carried out are summarised. In the last table under the heading "Sedative action %" there is given the percentage of the experimental animals which no longer take up the normally readily assumed climbing work.

[2] = LD50 (mouse), acute toxicity; conditions: in vivo

| Compound | responders at 8 mg/kg [1] [%] | LD50 ([2]; ip) [mg/kg] | further results |
| --- | --- | --- | --- |
| COC(=O)CNCC(=O)N(C)c1ccc(Cl)cc1C(=O)c1ccccc1 [2-(4-Methoxycarbonyl-N-methyl-3-aza-butanamido)-5-chlor-benzophenone] | – | – | responders at 10 mg/kg [1]: 50%; LD50 ([2]; po): 950 mg/kg |
| CN(CCC(=O)O)CC(=O)Nc1ccc(Cl)cc1C(=O)c1ccccc1 [2-(5-Carboxy-3-methyl-3-aza-pentanamido)-5-chlor-benzophenone] | 90 | 450 | – |
| CCCCN(CCC#N)CC(=O)N(C)c1ccc([N+](=O)[O-])cc1C(=O)c1ccccc1 [2-(5-Cyano-N-methyl-3-n-butyl-3-aza-pentanamido)-5-nitro-benzophenone] | 50 | 680 | – |
| Cc1ccc(N(C)C(=O)CNCCC#N)c(C(=O)c2ccccc2)c1 [2-(5-Cyano-N-methyl-3-aza-pentanamido)-5-methyl-benzophenone] | 50 | – | – |
| CC(CC#N)NCC(=O)Nc1ccccc1C(=O)c1ccccc1 (stereo not shown) [2-(5-Cyano-4-methyl-3-aza-pentanamido)-benzophenone] | – | – | responders at 10 mg/kg [1]: 50%; LD50 ([2]; po): > 1000 mg/kg |
| CC(CC#N)NCC(=O)N(C)c1ccc(Cl)cc1C(=O)c1ccccc1 (stereo not shown) [2-(5-Cyano-N,4-dimethyl-3-aza-pentanamido)-5-chlor-benzophenone] | 50 | 315 | – |
| CCCC(C)(COC(N)=O)COC(N)=O [Meprobamate, reference compound] | – | 620 | responders at 70 mg/kg ([1]; dose 70 mg/kg p.o., comparative preparation): 50% |
| CCOC(=O)CCNCC(=O)N(C)c1ccc(C(F)(F)F)cc1C(=O)c1ccccc1 [2-(5-ethoxycarbonyl-N-methyl-3-aza-pentanamido)-5-trifluormethyl-benzophenone] | 60 | 400 | – |
| CN(CCC#N)CC(=O)N(C)c1ccc([N+](=O)[O-])cc1C(=O)c1ccccc1 [2-(5-Cyano-N,3-dimethyl-3-aza-pentanamido)-5-nitro-benzophenone] | – | – | responders at 10 mg/kg [1]: 50%; LD50 ([2]; po): > 1000 mg/kg |
| CCOC(=O)CCNCC(=O)N(C)c1ccc(C)cc1C(=O)c1ccccc1 [2-(5-ethoxycarbonyl-N-methyl-3-aza-pentanamido)-5-methyl-benzophenone] | 50 | – | – |
| CCOC(=O)CCCNCC(=O)Nc1ccc([N+](=O)[O-])cc1C(=O)c1ccccc1 [2-(6-ethoxycarbonyl-3-aza-hexanamido)-5-nitro-benzophenone] | 50 | – | – |
| COc1ccc(N(C)C(=O)CNCCC#N)c(C(=O)c2ccccc2)c1 [2-(5-Cyano-N-methyl-3-aza-pentanamido)-5-methoxy-benzophenone] | 50 | – | – |
| CC(C#N)CN(C)CC(=O)N(C)c1ccc([N+](=O)[O-])cc1C(=O)c1ccccc1 (stereo not shown) [2-(5-Cyano-N,3-dimethyl-3-aza-hexanamido)-5-nitro-benzophenone] | – | 480 | responders at 10 mg/kg [1]: 60%; LD50 ([2]; po): 1100 mg/kg |
| CN(CCCC#N)CC(=O)Nc1ccc(Cl)cc1C(=O)c1ccccc1 [2-(6-Cyano-3-methyl-3-aza-hexanamido)-5-chlor-benzophenone] | 60 | – | – |
| CCOC(=O)CCCNCC(=O)N(C)c1ccc([N+](=O)[O-])cc1C(=O)c1ccccc1 [2-(6-ethoxycarbonyl-N-methyl-3-aza-hexanamido)-5-nitro-benzophenone] | 60 | 650 | – |
| CC(C#N)CNCC(=O)Nc1ccc(Cl)cc1C(=O)c1ccccc1 (stereo not shown) [2-(5-Cyano-3-aza-hexanamid0)-5-chlor-benzophenone] | 50 | 600 | – |
| CCOC(=O)CCNCC(=O)N(C)c1ccc(SC)cc1C(=O)c1ccccc1 [2-(5-ethoxycarbonyl-N-methyl-3-aza-pentanamido)-5-methylmerkapto-benzophenone] | 60 | – | – |
| C=CCN(CCC#N)CC(=O)Nc1ccc(Cl)cc1C(=O)c1ccccc1Cl [2-(5-Cyano-3-allyl-3-aza-pentanamido)-2'-5-dichlor-benzophenone] | 60 | 630 | – |
| CN(C(=O)CNCC#N)c1ccc(Cl)cc1C(=O)c1ccccc1 [2-(4-Cyano-N-methyl-3-aza-butanamido)-5-chlor-benzophenone] | 60 | 170 | – |
| Cc1ccc(N(C)C(=O)CNC(C)CC#N)c(C(=O)c2ccccc2)c1 (stereo not shown) | 70 | 300 | – |
| CC(CC#N)N(C)CC(=O)N(C)c1ccc(Cl)cc1C(=O)c1ccccc1 (stereo not shown) [2-(5-Cyano-N,3,4-trimethyl-3-aza-pentanamido)-5-chlor-benzophenone] | – | 320 | responders at 9 mg/kg ([1]; dose 9 mg/kg p.o.): 50% |
| CN(CCC#N)CC(=O)N(C)c1ccc(Cl)cc1C(=O)c1ccccc1 [2-(5-Cyano-N,3-dimethyl-3-aza-pentanamido)-5-chlor-benzophenone] | 50 | 240 | – |
| CCCCN(CCC#N)CC(=O)N(C)c1ccc(Cl)cc1C(=O)c1ccccc1 [2-(5-Cyano-N-methyl-3-n-butyl-3-aza-pentanamido)-5-chlor-benzophenone] | 80 | 360 | – |
| CC(CC#N)NCC(=O)N(C)c1ccccc1C(=O)c1ccccc1 (stereo not shown) [2-(5-Cyano-N,4-dimethyl-3-aza-pentanamido)-benzophenone] | 70 | 320 | – |
| CCOC(=O)CCNCC(=O)Nc1ccc(Cl)cc1C(=O)c1ccccc1Cl [2-(5-ethoxycarbonyl-3-aza-pentanamido)-2',5-dichlor-benzophenone] | 70 | – | – |
| COc1ccc(N(C)C(=O)CNC(C)CC#N)c(C(=O)c2ccccc2)c1 (stereo not shown) [2-(5-Cyano-N,4-dimethyl-3-aza-pentanamido)-5-methoxy-benzophenone] | 60 | 250 | – |
